Measured values reported in patent US20140228214A1, “COMPOSITIONS COMPRISING A STREPTOMYCES-BASED BIOLOGICAL CONTROL AGENT AND A FUNGICIDE” (BAYER CROPSCIENCE LP, priority 2013, published 2014).
Read-outs that look alike come from different tables or passages of the source.

Tests used:
Phytophthora infestans = type: in vivo
Venturia inaequalis = assay: Venturia test (apples)/preventive, evaluated 10 days after the inoculation
Procedure: After the spray coating has dried on, the plants are inoculated with an aqueous conidia suspension of the causal agent of apple scab (Venturia inaequalis) and then remain for 1 day in an incubation cabinet at approximately 20° C. and a relative atmospheric humidity of 100%. The plants are then placed in a greenhouse at approximately 21° C. and a relative atmospheric humidity of approximately 90%.
The test is evaluated 10 days after the inoculation.

Septoria tritici = assay: Septoria tritici-test (wheat)/preventive, evaluated 21 days after the inoculation; type: in vivo
Pyrenophora teres = assay: Pyrenophora teres-test (barley)/preventive, evaluated 8 days after the inoculation; type: in vivo
[1] = system: Blumeria graminis fsp. hordei; assay: Blumeria test (barley)/preventive, evaluated 7 days after the inoculation; type: in vivo
Puccinia triticina = assay: Puccinia triticina-test (wheat)/preventive, evaluated 8 days after the inoculation; type: in vivo
Alternaria solani = assay: Alternaria test (tomatoes)/preventive, evaluated 3 days after the inoculation; type: in vivo
Sphaerotheca fuliginea = assay: Sphaerotheca test (cucumbers)/preventive, evaluated 7 days after the inoculation; type: in vivo
Botrytis cinerea = assay: Botrytis test (beans)/preventive, size of the lesions 2 days after the inoculation; conditions: Table 17
Procedure: After the spray coating has dried on, 2 small pieces of agar covered with growth of Botrytis cinerea are placed on each leaf. The inoculated plants are placed in a darkened chamber at 20° C. and a relative atmospheric humidity of 100%.
2 days after the inoculation, the size of the lesions on the leaves is evaluated.

Cn1cc(C(=O)Nc2ccccc2-c2cc(F)c(F)c(F)c2)c(C(F)F)n1 [F72, fluxapyroxad]
Efficacy in % found (Phytophthora infestans; Table 19, 100 ppm a.i.): 0%
Efficacy in % found (Venturia inaequalis; Table 31, 0.25 ppm a.i.): 0%
Efficacy in % found (Septoria tritici; Table 26, 31.25 ppm a.i.): 13%
Efficacy in % found (Pyrenophora teres; Table 25, 15.625 ppm a.i.): 80%
Efficacy in % found (Pyrenophora teres; Table 25, 31.25 ppm a.i.): 90%
Efficacy in % found ([1]; Table 15, 31.25 ppm a.i.): 0%
Efficacy in % found (Puccinia triticina; Table 22, 15.625 ppm a.i.): 22%
Efficacy in % found (Puccinia triticina; Table 22, 31.25 ppm a.i.): 22%
Efficacy in % found (Alternaria solani; Table 12, 0.5 ppm a.i.): 45%

Cc1nn(C)c(F)c1C(=O)Nc1ccccc1C(C)CC(C)C (stereo not shown) [F84, penflufen]
Efficacy in % found (Phytophthora infestans; Table 19, 100 ppm a.i.): 8%
Efficacy in % found (Venturia inaequalis; Table 31, 0.5 ppm a.i.): 0%
Efficacy in % found (Pyrenophora teres; Table 25, 62.5 ppm a.i.): 70%
Efficacy in % found (Pyrenophora teres; Table 25, 125 ppm a.i.): 60%
Efficacy in % found (Sphaerotheca fuliginea; Table 29, 0.5 ppm a.i.): 0%
Efficacy in % found (Puccinia triticina; Table 22, 31.25 ppm a.i.): 67%

CO/C=C(/C(=O)OC)c1ccccc1Oc1cc(Oc2ccccc2C#N)ncn1 [F107, azoxystrobin]
Efficacy in % found (Venturia inaequalis; Table 32, 0.5 ppm a.i.): 84%
Efficacy in % found (Septoria tritici; Table 26, 15.625 ppm a.i.): 13%
Efficacy in % found (Septoria tritici; Table 26, 31.25 ppm a.i.): 50%
Efficacy in % found (Pyrenophora teres; Table 25, 15.625 ppm a.i.): 60%
Efficacy in % found (Pyrenophora teres; Table 25, 31.25 ppm a.i.): 90%
Efficacy in % found (Sphaerotheca fuliginea; Table 28, 0.5 ppm a.i.): 37%
Efficacy in % found ([1]; Table 15, 31.25 ppm a.i.): 10%
Efficacy in % found (Puccinia triticina; Table 22, 7.8125 ppm a.i.): 67%
Efficacy in % found (Alternaria solani; Table 13, 2 ppm a.i.): 41%

O=C(NCc1ncc(C(F)(F)F)cc1Cl)c1c(Cl)cccc1Cl [F143, fluopicolide]
Efficacy in % found (Phytophthora infestans; Table 20, 5 ppm a.i.): 21%
Efficacy in % found (Venturia inaequalis; Table 32, 50 ppm a.i.): 0%

N#Cc1ccccc1NC(=O)c1snc(Cl)c1Cl [F187, isotianil]
Efficacy in % found (Venturia inaequalis; Table 31, 50 ppm a.i.): 0%
Efficacy in % found (Septoria tritici; Table 27, 250 ppm a.i.): 29%
Efficacy in % found (Septoria tritici; Table 27, 500 ppm a.i.): 29%
Efficacy in % found (Botrytis cinerea; 125 ppm a.i.): 40%
Efficacy in % found (Sphaerotheca fuliginea; Table 30, 100 ppm a.i.): 20%
Efficacy in % found (Alternaria solani; Table 14, 50 ppm a.i.): 18%

C#CCOc1ccc(CCNC(=O)C(OCC#C)c2ccc(Cl)cc2)cc1OC (stereo not shown) [F206, mandipropamid]
Efficacy in % found (Phytophthora infestans; Table 20, 0.25 ppm a.i.): 47%
Efficacy in % found (Sphaerotheca fuliginea; Table 28, 100 ppm a.i.): 13%

COCC(=O)N(c1c(C)cccc1C)[C@H](C)C(=O)OC [F242, metalaxyl-M (mefenoxam)]
Efficacy in % found (Venturia inaequalis; Table 32, 50 ppm a.i.): 0%
Efficacy in % found (Sphaerotheca fuliginea; Table 28, 100 ppm a.i.): 13%

chlorothalonil [F155]
Efficacy in % found (Phytophthora infestans; Table 21, 20 ppm a.i.): 0%
Efficacy in % found (Venturia inaequalis; Table 33, 10 ppm a.i.): 4%
Efficacy in % found (Septoria tritici; Table 27, 125 ppm a.i.): 57%
Efficacy in % found (Pyrenophora teres; Table 24, 250 ppm a.i.): 50%

difenoconazole [F7]
Efficacy in % found (Phytophthora infestans; Table 19, 100 ppm a.i.): 0%
Efficacy in % found (Venturia inaequalis; Table 31, 1 ppm a.i.): 38%
Efficacy in % found (Sphaerotheca fuliginea; Table 29, 1 ppm a.i.): 0%
Efficacy in % found ([1]; Table 16, 62.5 ppm a.i.): 44%
Efficacy in % found ([1]; Table 16, 125 ppm a.i.): 67%
Efficacy in % found (Puccinia triticina; Table 23, 31.25 ppm a.i.): 30%
Efficacy in % found (Puccinia triticina; Table 23, 62.5 ppm a.i.): 60%
Efficacy in % found (Alternaria solani; Table 12, 2 ppm a.i.): 30%

fenamidone [F114]
Efficacy in % found (Phytophthora infestans; Table 20, 1 ppm a.i.): 41%
Efficacy in % found (Venturia inaequalis; Table 32, 50 ppm a.i.): 0%
Efficacy in % found (Sphaerotheca fuliginea; Table 28, 100 ppm a.i.): 21%
Efficacy in % found (Alternaria solani; Table 13, 50 ppm a.i.): 62%

fenhexamid [F16]
Efficacy in % found (Phytophthora infestans; TABLE 17 (Phytophthora), 100 ppm a.i.): 0%
Efficacy in % found (Venturia inaequalis; Table 31, 25 ppm a.i.): 0%
Efficacy in % found (Sphaerotheca fuliginea; Table 30, 100 ppm a.i.): 0%
Efficacy in % found (Alternaria solani; Table 14, 50 ppm a.i.): 50%

fludioxonil [F248]
Efficacy in % found (Venturia inaequalis; Table 31, 50 ppm a.i.): 0%
Efficacy in % found (Botrytis cinerea; 2.5 ppm a.i.): 26%
Efficacy in % found (Sphaerotheca fuliginea; Table 30, 100 ppm a.i.): 30%

flutolanil [F71]
Efficacy in % found (Venturia inaequalis; Table 31, 50 ppm a.i.): 0%
Efficacy in % found (Botrytis cinerea; 250 ppm a.i.): 30%
Efficacy in % found (Sphaerotheca fuliginea; Table 30, 100 ppm a.i.): 20%

fosetyl-aluminium [F281]
Efficacy in % found (Phytophthora infestans; Table 20, 50 ppm a.i.): 55%
Efficacy in % found (Venturia inaequalis; Table 32, 50 ppm a.i.): 0%
Efficacy in % found (Sphaerotheca fuliginea; Table 28, 100 ppm a.i.): 13%
Efficacy in % found (Alternaria solani; Table 13, 50 ppm a.i.): 15%

mancozeb [F174]
Efficacy in % found (Phytophthora infestans; Table 21, 20 ppm a.i.): 0%
Efficacy in % found (Venturia inaequalis; Table 33, 10 ppm a.i.): 0%
Efficacy in % found (Sphaerotheca fuliginea; Table 29, 20 ppm a.i.): 0%

phosphorous acid and its salts [F298]
Efficacy in % found (Phytophthora infestans; Table 20, 500 ppm a.i.): 76%
Efficacy in % found (Venturia inaequalis; Table 32, 50 ppm a.i.): 0%

propamocarb hydrochloride [F220]
Efficacy in % found (Phytophthora infestans; TABLE 17 (Phytophthora), 500 ppm a.i.): 7%
Efficacy in % found (Venturia inaequalis; Table 31, 250 ppm a.i.): 0%
Efficacy in % found (Sphaerotheca fuliginea; Table 30, 500 ppm a.i.): 10%
Efficacy in % found (Alternaria solani; Table 14, 250 ppm a.i.): 12%

propineb [F180]
Efficacy in % found (Phytophthora infestans; Table 21, 20 ppm a.i.): 8%
Efficacy in % found (Venturia inaequalis; Table 33, 10 ppm a.i.): 81%
Efficacy in % found (Sphaerotheca fuliginea; Table 29, 20 ppm a.i.): 0%

prothioconazole [F41]
Efficacy in % found (Phytophthora infestans; Table 19, 100 ppm a.i.): 45%
Efficacy in % found (Venturia inaequalis; Table 31, 1 ppm a.i.): 0%
Efficacy in % found (Sphaerotheca fuliginea; Table 29, 1 ppm a.i.): 43%
Efficacy in % found (Alternaria solani; Table 12, 2 ppm a.i.): 0%

spiroxamine [F46]
Efficacy in % found (Venturia inaequalis; Table 31, 50 ppm a.i.): 0%
Efficacy in % found (Botrytis cinerea; 100 ppm a.i.): 14%
Efficacy in % found (Sphaerotheca fuliginea; Table 30, 100 ppm a.i.): 30%
Efficacy in % found ([1]; Table 16, 125 ppm a.i.): 11%
Efficacy in % found (Alternaria solani; Table 14, 50 ppm a.i.): 46%

tebuconazole [F47]
Efficacy in % found (Phytophthora infestans; Table 19, 100 ppm a.i.): 15%
Efficacy in % found (Venturia inaequalis; Table 31, 1 ppm a.i.): 0%
Efficacy in % found (Septoria tritici; Table 27, 125 ppm a.i.): 57%
Efficacy in % found ([1]; Table 16, 31.25 ppm a.i.): 78%
Efficacy in % found (Puccinia triticina; Table 23, 31.25 ppm a.i.): 30%
Efficacy in % found (Puccinia triticina; Table 23, 62.5 ppm a.i.): 60%
Efficacy in % found (Alternaria solani; Table 12, 2 ppm a.i.): 35%
